Measurements published in paper PMC4520450, “Procyanidins Negatively Affect the Activity of the Phosphatases of Regenerating Liver” (PLoS ONE, 2015).

Key:
PP1 = biological target: T1, PP1 (Oryctolagus cuniculus, UniProt P62139); assay: DiFMUP assay for PP1; type: biochemical; conditions: 2 mU PP1c, 30 min preincubation, 25°C, DiFMUP, no BSA; mean ± SEM (n = 3–5); read-out: IC50 (Ki) PP1
T1 construct: purchased NewEngland Biolabs; host or cells: E. coli
Procedure: (§1) Fig 2 Effect of polyphenolic compounds 8 (A), 9 (B), 10 (C) and 11 (D) on the phosphatase activity of PRL-1, PRL-2, PRL-3, PP1, and PP2A. Proteins were incubated for 30 min with 0–1000 μM of the corresponding procyandin 8–11. Phosphatase activity was measured in the presence of DiFMUP at 25°C using the concentration corresponding to the KM of each protein. The KM for PRLs was determined separately (PRL-3 = 21 μM, PRL-2 and PRL-1 = 24 μM). The KM for PP1 (91 μM) and for PP2A (100 μM) was taken from the literature. Protein concentrations are 50 nM for all PRLs and 2 mU for PP1 and 0.05 U for PP2A (see the Experimental Procedures). Phosphatase activity in the absence of inhibitors was set as 100%. Data represent means ± standard errors of the mean (n = 3–5).
BSA, which is usually supplemented to the assay buffer for stabilizing the PPs was however excluded, as BSA is known to form complexes with polyphenolic compounds [40–42] and thus would decrease the concentrations of the inhibitor in the assay. […] In contrast, the phosphatase activity of PP2A was suppressed to a much lesser extent with weak (for trimer 9 and hexamer 11) and strong statistical significance (dimer 8 and tetramer 10). Thus our results corroborate the data reported previously.
DiFMUP assay for PP1: In a final reaction volume of 100 μL PP1c (2 mU final concentration, according to manufacturer’s instructions) were incubated with decreasing concentrations of the inhibitory polyphenols for 30 minutes at 25°C. The assay buffer contained 25 mM imidazole (pH 7.4), 1 mM dithiothreitol (DTT), and 50 mM NaCl. Bovine serum albumin (BSA) was excluded due to possible binding of the polyphenolic compounds. After the incubation time 20 μL DiFMUP (6,8-Difluoro-4-methylumbelliferyl phosphate) was added to reach a final concentration of 100 μM. Monitoring of the fluorescent dephosphorylation product was monitored and data analyzed as described above.

PRL-3 = biological target: T2, PRL-3 (Homo sapiens, UniProt O75365); assay: DiFMUP phosphatase activity assay for PRLs; type: biochemical; conditions: 50 nM PRL-3, 30 min preincubation, 25°C, 21 μM DiFMUP; mean ± SEM (n = 3–5); read-out: IC50 (Ki) PRL-3
T2 construct: His-TEV (cleaved yes); made in house
T2 sequence (O75365 whole entry): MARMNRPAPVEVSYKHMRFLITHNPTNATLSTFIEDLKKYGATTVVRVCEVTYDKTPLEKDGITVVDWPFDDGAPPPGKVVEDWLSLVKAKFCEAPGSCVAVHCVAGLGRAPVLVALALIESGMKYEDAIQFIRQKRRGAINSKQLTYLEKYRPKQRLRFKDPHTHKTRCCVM
Procedure: Biochemical phosphatase activity measurements were carried out in the presence of different concentrations of various polyphenols, compounds 1–11 (Fig 1), using recombinant PRL-3 and 6,8-difluoro-4-methylumbelliferyl phosphate (DiFMUP) as a fluorogenic substrate (see the experimental procedures). We observed that the monomeric epicatechins EGC and EC inhibit PRL-3 only weakly, with a slightly better activity of EGC, which bears three hydroxyl groups at the B-ring. […] In general, as a basic structure activity-relationship the following trend was observed: a higher number of hydroxyl groups at the B-ring increased the activity slightly. […] The influence of the stereochemistry at C(2)–C(3) was studied by using GCG (the trans-epimer of EGCG).
as §1
DiFMUP assay for PRLs: In a final reaction volume of 100 μL the PRLs (50 nM final concentration) were incubated with decreasing concentrations of the inhibitory polyphenols for 30 minutes at 25°C. The buffer conditions were 108 mM TrisCl (pH 7.5), Triton 0.05% (v/v), DTT 27.0 mM, NaCl 811 mM. After the incubation time 20 μL DiFMUP (6,8-Difluoro-4-methylumbelliferyl phosphate) was added to reach a final concentration of 21 μM for PRL-3 and 24 μM for PRL-1 and PRL-2. On a Tecan safire2 (Tecan, Salzburg, Austria) plate reader dephosphorylation of the substrate to its fluorescent product was monitored by following the emission at 358 nm with excitation at 452 nm for 20 minutes. All measurements were done in triplicates, and the experiments were repeated at least three times. The slopes of the initial phases were obtained by linear regression of the data points. The normalized reaction rates were plotted versus the log of the inhibitor concentrations and the IC50 values were obtained by fitting the curves using the one site competition model of GraphPad Prism (GraphPad Software, Version 5). KM values were determined by measuring reaction kinetics of substrate dilution series. Initial velocities were plotted against DiFMUP concentration and the data was analyzed by Michaelis-Menten kinetics curve fitting of GraphPad Prism. A final DMSO content of 0.4% was maintained for the monomeric catechins. Due to the high water solubility of the procyanidins DMSO was not required and measurements were done in assay buffer only.

T1 sequence (P62139 whole entry): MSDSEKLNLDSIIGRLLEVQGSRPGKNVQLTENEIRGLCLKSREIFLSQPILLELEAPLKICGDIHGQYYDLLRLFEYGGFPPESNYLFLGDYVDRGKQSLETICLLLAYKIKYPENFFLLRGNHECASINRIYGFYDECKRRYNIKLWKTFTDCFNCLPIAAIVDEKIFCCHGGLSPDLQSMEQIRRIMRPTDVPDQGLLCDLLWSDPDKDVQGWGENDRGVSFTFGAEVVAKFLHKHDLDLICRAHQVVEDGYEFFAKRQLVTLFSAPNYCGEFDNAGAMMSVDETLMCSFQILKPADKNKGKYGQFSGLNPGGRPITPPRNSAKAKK

SMILES | IC50 (PP1) | IC50 (PRL-3)
Oc1cc(O)c2c(c1)O[C@H](c1ccc(O)c(O)c1)[C@@H](O)[C@@H]2c1c(O)cc(O)c2c1O[C@H](c1ccc(O)c(O)c1)[C@@H](O)C2 [Procyanidin B3 (8), Procyanidin B3] | 383 ± 43 µM | 127 ± 1.5 µM
Oc1cc(O)c2c(c1)O[C@H](c1ccc(O)c(O)c1)[C@@H](O)[C@@H]2c1c(O)cc(O)c2c1O[C@H](c1ccc(O)c(O)c1)[C@@H](O)[C@@H]2c1c(O)cc(O)c2c1O[C@H](c1ccc(O)c(O)c1)[C@@H](O)C2 [Procyanidin C2 (9), Procyanidin C2] | 88 ± 13.7 µM | 18.8 ± 4.5 µM
